These results are taken from patent publication US20130131321A1, “LIGANDS FOR ANTIBODY AND Fc-FUSION PROTEIN PURIFICATION BY AFFINITY CHROMATOGRAPHY” (GRAFFINITY PHARMACEUTICALS GMBH, priority 2010, published 2013).

Broadly, the half-life is the time needed for the level to fall by half in the phase considered.

The subject of series [1] is Bevacizumab Fab fragment. Put plainly: Microtiter plate chromatography of resins, Bevacizumab Fab fragment (bound). It is filed as binding, humanized. As to the method: Resins were assessed in packed mode by microtiter plate chromatography. For each column, approximately 30 μl of resin were transferred to a 384-well filter plate and sealed with appropriate top frits.
Columns were equilibrated with 6.7 column volumes (cv) of phosphate buffered saline (0.15 M NaCl, 20 mM sodium phosphate, pH 7.3; PBS) prior to injection. Either 3.3 cv of whole IgGs dissolved at 0.75 mg ml^−1, Fab or Fc fragments dissolved at 0.25 mg ml^−1 (all three in PBS) or host cell proteins (HCP) were injected onto columns. Antibody fragments of Bevacizumab (Fab and Fc) were prepared by cleavage of whole IgG with papain protease (3) according to the protocol of the manufacturer. […] Volumes transferred were spun through columns at 50 g for 1-2 min. During injection of samples, acceleration was reduced to 10 g and centrifugation time increased to 5-10 min. Effluent fractions were collected in 384-well plates and concentrations of protein analyzed by Bradford assay. Protein masses mi, mft and me (see below) were calculated as the product of fraction volume and measured protein concentration.
The fraction of ‘bound’ protein was calculated as the difference between the total mass of protein injected mi and the mass of protein detected in the flowthrough mft, divided by the total mass of protein injected.
the fraction of ‘bound’ protein and the ‘yield’ of protein were calculated for each resin based on data for whole IgG-antibodies. In the case of Bevacizumab fragments and host cell proteins, only the fraction of ‘bound’ protein is given. Selectivity of resins was calculated from data for Bevacizumab Whole IgG and host cell proteins. Due to limited experimental precision, selectivity was truncated beyond values of 10.

A short description of series [2]: Alkaline stability in sodium hydroxide, LC-MS. It is filed as physicochemical. The following applies: 25° C., 8 days. As to the method: It was either treated with 0.1 M or 0.5 M sodium hydroxide at 25° C. Hydrolysis was monitored by LC-MS analysis.
The target in series [3] is T1, Bevacizumab (Homo sapiens, UniProt P01857).
T1 construct: fused on or other part: humanised anti-VEGF-A VH domain N-terminal of the gamma-1 constant region (engineered, no UniProt entry)
Put plainly: Dynamic and equilibrium binding capacity by column chromatography. Details: species or system humanized. The following applies: 1 mg ml^−1 Bevacizumab. How it is done:
Dynamic binding capacities were determined by column chromatography with purified Bevacizumab. Resins were packed into analytical columns of 25 mm length and 3 mm inner diameter. Columns were fed with 1 mg ml^−1 antibody in phosphate-buffered saline (150 mM NaCl, 20 mM phosphate buffer, pH 7.3) at constant flow rate, while the concentration of antibody in effluents was monitored online via absorbance at 280 nm. Antibody was loaded until effluent concentration reached at least 10% of the feed concentration. Dynamic binding capacities were determined at a flow rate of 50 cm h^−1, corresponding to 3 min empty column residence time. Equilibrium capacities were also determined at a flow rate of 50 cm h^−1 by loading until complete breakthrough of antibody. […]
‘Dynamic capacity’ was defined as the amount of antibody that can be injected onto a column at constant flow rate until the effluent concentration reaches 10% of the feed concentration. It was calculated as the time t0.1 after which 10% breakthrough occurred, multiplied by the flow rate F and feed concentration cf.
Equilibrium capacity is defined as the maximum amount of antibody that binds to a column for a given feed stream concentration. It was calculated by evaluation of the following integral
The integral was evaluated numerically. […]

Series [4] concerns Bevacizumab Fab fragment. Briefly: SPR screening of chemical microarrays, Bevacizumab Fab fragment. It is filed as binding, humanized. The note with it: chemical microarray, immobilized ligand. An excerpt:
(§1) Graffinity has developed high density chemical microarrays comprising thousands of small molecules immobilized onto gold chips. The arrays are constructed using maleimide-thiol coupling chemistry in combination with high density pintool spotting. For the construction, glass plates are microstructured by photolithographical methods in order to define up to 9,216 sensor fields per array. A subsequently applied gold coating provides the basis for the SPR effect and enables the formation of a binary, mixed self assembled monolayer (SAM) of two different thiols. […]
(§2) Surface plasmons are collective oscillations of electrons at a metal surface which can be resonantly excited by polarized light of appropriate wavelength and incidence angle. […] Processes which alter the local refractive index in close proximity to the metal surface (such as antibody binding to the immobilized ligands) can therefore be monitored sensitively. […] While scanning over a range of wavelengths covering the SPR resonance conditions, reflection images are recorded stepwise. […]
(§3) The experimental results of the microarray screening campaigns were analyzed by manual hit selection using in-house developed software routines as well as by an in-depth data analysis by commercially available data mining tools. […]

Series [5] deals with Bevacizumab Fc fragment. Briefly: SPR screening of chemical microarrays, Bevacizumab Fc fragment. It is filed as binding, humanized. The following applies: chemical microarray, immobilized ligand.
Description: as §1, §2, §3

Regarding `COc1ccc(NC(=O)c2cc(-c3ccco3)n(C)n2)cc1C(=O)NCCCN` [Ligand L1, 5-[5-(2-Furyl)-1-methylpyrazol-3-yl]carboxamido-2-methoxybenzoic acid N-(3-aminopropyl)amide], in series [1] (Bevacizumab Fab fragment), the “Bevacizumab Fab Bound (%)” value worked out at 18%. Further, the “binding of Bevacizumab Fab-fragment” value in series [1] (Fab 0.25 mg ml^-1 in PBS) is listed as “not the Fab-fragment”. In addition, the “degradation (alkaline stability)” value in series [2] (0.1 M NaOH) was “no degradation”. The half-life in series [2] (0.5 M sodium hydroxide solution, 0.5 M NaOH) is 12 days. The “Dynamic Capacity” value in series [3] (50 cm h^−1, 10% breakthrough) was 20.2 mg per ml of resin. In addition, the “Equilibrium Capacity” value in series [3] (50 cm h^−1, complete breakthrough) is 25.7 mg per ml of resin. Moreover, the “SPR binding to Bevacizumab Fab fragment” value in series [4] was “only minor binding”. The “SPR binding to Bevacizumab Fc fragment” value in series [5] is on record as “distinct binding”.
